This note sets out measurements from publication PMC5740381 (Antimicrobial Agents and Chemotherapy, 2017).

Like-named read-outs stand apart in the source and are kept apart here.

Common to all, as to type: cell-based, Hepatitis C virus
In experiment [1] the test system is HCV subgenomic stable replicon GT4a. In words: Stable HCV replicon luciferase assay in Huh-7 cells. The following applies: Hepatitis C virus, Huh-7, 0% human plasma, read-out: Mean EC50 ± SD. The text has this:
(§1) . Five of these nine cell lines have been described previously, including those transfected with genotypes 1a H77, 1b Con1, 3a, 4a, and 6a ([28]). The other four cell lines were established by transfecting cells with a nonchimeric genotype 2a JFH-1 replicon (GenBank accession number AB047639), two genotype 2a JFH-1 chimeric replicons containing either a genotype 2b NS3 protease domain (N-terminal 251 amino acids) or a sequence encoding full-length NS3 through the first 39 amino acids of NS5B from genotype 5a (strain SA13), and one chimeric replicon with a genotype 1b Con1 backbone containing full-length NS3 and NS4A sequences from genotype 6e. The genotype 2b and 6e NS3 sequences were each synthetically constructed based on a consensus sequence derived from the alignment of 15 genotype 2b and 4 genotype 6e sequences, respectively. All replicon constructs were bicistronic subgenomic replicons similar to those described by Bartenschlager and coworkers, and the replicon cell lines were generated by introducing these constructs into cells of an Huh-7 human hepatoma-derived cell line ([50]). The inhibitory effect of the PIs on HCV replication in replicon cells was determined in Dulbecco's modified Eagle medium containing 5% fetal bovine serum with or without 40% human plasma (Bioreclamation, Westbury, NY). The EC50s were determined using nonlinear regression curve fitting as described previously ([33]).
Background: Replicon systems follow genome replication, usually without infectious particles.

Experiment [2] has as its system HCV subgenomic stable replicon GT6a. The experiment is described as above. The following applies: Hepatitis C virus, Huh-7, 0% human plasma, read-out: Mean EC50 ± SD.
Source text: as §1

The next experiment deals with HCV genotype 3a replicon. The experiment can be described thus: Transient replicon assay with engineered substitutions. As to conditions: Hepatitis C virus. On the procedure:
(§2) Mutagenesis was performed using a Change-IT multiple-mutation site-directed mutagenesis kit (USB, Cleveland, OH) or by cloning a synthesized DNA fragment encoding the amino acid substitution(s). The genotype 1a and 1b replicon shuttle vectors used for the introduction of the substitutions of interest in the NS3, NS5A, or NS5B gene for transient-transfection assays have been described previously ([28], [33]). The replicon shuttle vectors used for the introduction of substitutions in NS3 genes from other genotypes were similar to the stable replicon cell line constructs described above, except for the absence of the neo gene. After mutagenesis, the plasmids were linearized and RNA was transcribed and then used to transfect Huh-7 cells. Inhibition of HCV replication by the HCV inhibitors was measured by luciferase assay, as described above. Replication efficiency was calculated as a percentage of wild-type replication, as described previously ([28]).

In a further experiment the test system is HCV genotype 4a replicon. The description is as above. The following applies: Hepatitis C virus. On the procedure: as §2
In a further experiment the test system is HCV genotype 2b replicon. The description is as above. The following applies: Hepatitis C virus. How it is done: as §2
The subject of the next experiment is HCV genotype 6a replicon. The experiment is described as above. The following applies: Hepatitis C virus. How it is done: as §2
A further experiment concerns HCV genotype 4d replicon. The experiment is described as above. The following applies: Hepatitis C virus, 96 h, read-out: Mean EC50 ± SD, 4d wild type, transient transfection. On the procedure: as §2
In experiment [3] the test system is HCV subgenomic stable replicon GT3a. In words: microbe, parasite or virus in culture. The following applies: Hepatitis C virus, Huh-7, 0% human plasma, read-out: Mean EC50 ± SD. The text has this:
Five of these nine cell lines have been described previously, including those transfected with genotypes 1a H77, 1b Con1, 3a, 4a, and 6a ([28]). […] The genotype 2b and 6e NS3 sequences were each synthetically constructed based on a consensus sequence derived from the alignment of 15 genotype 2b and 4 genotype 6e sequences, respectively. All replicon constructs were bicistronic subgenomic replicons similar to those described by Bartenschlager and coworkers, and the replicon cell lines were generated by introducing these constructs into cells of an Huh-7 human hepatoma-derived cell line ([50]). The inhibitory effect of the PIs on HCV replication in replicon cells was determined in Dulbecco's modified Eagle medium containing 5% fetal bovine serum with or without 40% human plasma (Bioreclamation, Westbury, NY). The EC50s were determined using nonlinear regression curve fitting as described previously ([33]).

For orientation: EC50 means the concentration giving half of the maximal effect.

As for `CC(C)(C)[C@@H]1NC(=O)O[C@@H]2CCC[C@H]2OC/C=C/C(F)(F)c2nc3ccccc3nc2O[C@@H]2C[C@@H](C(=O)N[C@]3(C(=O)NS(=O)(=O)C4(C)CC4)C[C@H]3C(F)F)N(C2)C1=O` [Glecaprevir, (3aR,7S,10S,12R,21E,24aR)-7-tert-butyl-N-[(1R,2R)-2-(difluoromethyl)-1-{[(1-methylcyclopropyl)sulfonyl]carbamoyl}cyclopropyl]-20,20-difluoro-5,8-dioxo-2,3,3a,5,6,7,8,11,12,20,23,24a-dodecahydro-1H,10H-9,12-methanocyclopenta[18,19][1,10,17,3,6]trioxadiazacyclononadecino[11,12-b]quinoxaline-10-carboxamide], the EC50 in experiment [1] is 2.8 ± 0.41 nM; in experiment [2], 0.86 ± 0.11 nM; in the experiment with HCV genotype 3a replicon (read-out: Mean EC50 ± SD, 3a NS3 A156G), 909 ± 349 nM; in the experiment with HCV genotype 3a replicon (read-out: Mean EC50 ± SD, 3a NS3 Q168R) it was 30 ± 10 nM; in the experiment on HCV genotype 3a replicon (read-out: Mean EC50 ± SD, 3a wild type, transient transfection), 0.55 nM; in the experiment with HCV genotype 4a replicon (read-out: Mean EC50 ± SD, 4a NS3 A156T) it was 962 ± 374 nM. Also, the EC50 in the experiment with HCV genotype 4a replicon (read-out: Mean EC50 ± SD, 4a NS3 A156V) was found to be 2080 nM; in the experiment on HCV genotype 4a replicon (read-out: Mean EC50 ± SD, 4a NS3 D168H) it was 15 ± 6.1 nM; in the experiment on HCV genotype 4a replicon (read-out: Mean EC50 ± SD, 4a NS3 D168V), 6.5 ± 3 nM; in the experiment on HCV genotype 4a replicon (read-out: Mean EC50 ± SD, 4a NS3 R155C), 1.7 ± 0.47 nM; with HCV genotype 4a replicon (read-out: Mean EC50 ± SD, 4a wild type, transient transfection) it was 0.67 nM; in the experiment on HCV genotype 2b replicon (read-out: Mean EC50 ± SD, 2b NS3 A156T), 460 ± 172 nM. Further, the EC50 with HCV genotype 2b replicon (read-out: Mean EC50 ± SD, 2b NS3 A156V) was 4510 nM; in the experiment with HCV genotype 2b replicon (read-out: Mean EC50 ± SD, 2b NS3 D168A) it was 3.9 ± 1 nM; with HCV genotype 2b replicon (read-out: Mean EC50 ± SD, 2b NS3 D168E), 6.6 ± 1.8 nM; with HCV genotype 2b replicon (read-out: Mean EC50 ± SD, 2b NS3 D168V) it was 9.1 ± 1.2 nM; in the experiment with HCV genotype 2b replicon (read-out: Mean EC50 ± SD, 2b wild type, transient transfection), 3.1 nM; in the experiment with HCV genotype 6a replicon (read-out: Mean EC50 ± SD, 6a NS3 D168A), 12 ± 5.8 nM. The EC50 came to 22 ± 5.7 nM in the experiment on HCV genotype 6a replicon (read-out: Mean EC50 ± SD, 6a NS3 D168H); 5.8 ± 2.2 nM in the experiment with HCV genotype 6a replicon (read-out: Mean EC50 ± SD, 6a NS3 D168V); 0.15 nM with HCV genotype 6a replicon (read-out: Mean EC50 ± SD, 6a wild type, transient transfection); 0.15 ± 0.04 nM in the experiment on HCV genotype 4d replicon; 1.9 ± 0.62 nM in experiment [3].
